# Measurements from ChEMBL document CHEMBL1201862, “PubChem BioAssay data set” (2004).
#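 Step 1: Grow cells in 96-well plates. Step 2: Expose to compound for 48 hours at 5 concentrations. Step 3: Interpolate endpoints linearly; if unreached, use highest concentration. Here, GI50 denotes the concentration required for 50% inhibition of growth.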 Active and inactive are the calls of the source. Rule as the data show it: active = GI50 up to about 1.1 µM and inactive = higher. Peptide text beside a SMILES is read from it. * marks the point of attachment. Boc = CC(C)(C)OC(=O)*
# Assays:
# Experiment in all cases: NCI anticancer screen, dose series, 48 h
# COLO 205 = test system: COLO 205
# SK-OV-3 = test system: SK-OV-3
# SK-MEL-2 = test system: SK-MEL-2
# BT-549 = test system: BT-549
# A498 = test system: A498
# CAKI-1 = test system: CAKI-1
# SK-MEL-5 = test system: SK-MEL-5
# NCI-H23 = test system: NCI-H23
# UACC-62 = test system: UACC-62
# OVCAR-5 = test system: OVCAR-5
# Malme-3M = test system: Malme-3M
# SW-620 = test system: SW-620
# NCI-H460 = test system: NCI-H460
# OVCAR-3 = test system: OVCAR-3
# HOP-92 = test system: HOP-92
# MDA-MB-435 = test system: MDA-MB-435
# SF-539 = test system: SF-539
# HCT-116 = test system: HCT-116
# HL-60 = test system: HL-60
SMILES,GI50 (COLO 205),GI50 (SK-OV-3),GI50 (SK-MEL-2),GI50 (BT-549),GI50 (A498),GI50 (CAKI-1),GI50 (SK-MEL-5),GI50 (NCI-H23),GI50 (UACC-62),GI50 (OVCAR-5),GI50 (Malme-3M),GI50 (SW-620),GI50 (NCI-H460),GI50 (OVCAR-3),GI50 (HOP-92),GI50 (MDA-MB-435),GI50 (SF-539),GI50 (HCT-116),GI50 (HL-60)
CC(C)NC(=O)OCc1c(COC(=O)NC(C)C)c(-c2cc[n+](COC(=O)C3CCCCC3)cc2)n2c1CCC2,> 100 µM (inactive),> 100 µM (inactive),> 100 µM (inactive),> 100 µM (inactive),> 100 µM (inactive),50 µM (inactive),> 100 µM (inactive),> 100 µM (inactive),99.8 µM (inactive),> 100 µM (inactive),> 100 µM (inactive),> 100 µM (inactive),70 µM (inactive),> 100 µM (inactive),> 100 µM (inactive),> 100 µM (inactive),21.9 µM (inactive),> 100 µM (inactive),32.4 µM (inactive)
Cc1[nH]c(-c2ccccc2)c(O)c1C(=O)OC12CC3CC(CC(C3)C1)C2,13.9 µM (inactive),14.7 µM (inactive),16.7 µM (inactive),17.1 µM (inactive),20.5 µM (inactive),20.1 µM (inactive),14.6 µM (inactive),16.3 µM (inactive),17.3 µM (inactive),13.8 µM (inactive),14.1 µM (inactive),16.2 µM (inactive),7.82 µM (inactive),14.6 µM (inactive),18.8 µM (inactive),15 µM (inactive),11 µM (inactive),16.7 µM (inactive),55.6 µM (inactive)
O=C(c1ccccn1)c1nnn2ccccc12,> 100 µM (inactive),> 100 µM (inactive),> 100 µM (inactive),> 100 µM (inactive),> 100 µM (inactive),> 100 µM (inactive),> 100 µM (inactive),> 100 µM (inactive),> 100 µM (inactive),> 100 µM (inactive),> 100 µM (inactive),> 100 µM (inactive),> 100 µM (inactive),> 100 µM (inactive),> 100 µM (inactive),> 100 µM (inactive),> 100 µM (inactive),> 100 µM (inactive),> 100 µM (inactive)
Cc1cccc2cc3ccc4ccccc4c3cc12,19.4 µM (inactive),> 100 µM (inactive),26.5 µM (inactive),> 100 µM (inactive),44.2 µM (inactive),87.1 µM (inactive),21.9 µM (inactive),54.5 µM (inactive),80.9 µM (inactive),38.5 µM (inactive),56.5 µM (inactive),44 µM (inactive),25.4 µM (inactive),63.2 µM (inactive),98.9 µM (inactive),47.6 µM (inactive),74 µM (inactive),30 µM (inactive),24.9 µM (inactive)
COc1ccc(C2C(C#N)=C(S)N(C3OC(COC(C)=O)C(OC(C)=O)C(OC(C)=O)C3OC(C)=O)C(c3ccccc3)=C2C(C)=O)cc1 (configuration not stated),> 100 µM (inactive),–,> 100 µM (inactive),> 100 µM (inactive),> 100 µM (inactive),> 100 µM (inactive),53.7 µM (inactive),> 100 µM (inactive),41.8 µM (inactive),> 100 µM (inactive),> 100 µM (inactive),–,> 100 µM (inactive),> 100 µM (inactive),> 100 µM (inactive),33.6 µM (inactive),76.7 µM (inactive),> 100 µM (inactive),63.8 µM (inactive)
CC(=O)c1ccc(Nc2c3c(nc4ccccc24)CCCC3)cc1,11.7 µM (inactive),26.7 µM (inactive),24 µM (inactive),9.79 µM (inactive),> 31.8 µM (inactive),16.4 µM (inactive),14.9 µM (inactive),11.3 µM (inactive),17.1 µM (inactive),13.5 µM (inactive),–,16.9 µM (inactive),17.5 µM (inactive),11.5 µM (inactive),21.1 µM (inactive),1.96 µM (inactive),26.6 µM (inactive),13.2 µM (inactive),2.73 µM (inactive)
COCN1C(=O)[C@@H]2C[C@@H](O)CN2C(=O)c2ccccc21,> 100 µM (inactive),> 100 µM (inactive),> 100 µM (inactive),> 100 µM (inactive),> 100 µM (inactive),> 100 µM (inactive),> 100 µM (inactive),> 100 µM (inactive),> 100 µM (inactive),> 100 µM (inactive),> 100 µM (inactive),> 100 µM (inactive),> 100 µM (inactive),–,> 100 µM (inactive),> 100 µM (inactive),–,> 100 µM (inactive),60.5 µM (inactive)
CC(=O)OC1C(O)C(C)OC(OC2C(OC(=O)C3CCC4C(C3)OC3(CC(OC(=O)/C=C/c5ccccc5)C(C)CO3)C43CO3)OC(C)C(O)C2OC(C)=O)C1O (configuration not stated),0.0078 µM (active),0.0145 µM (active),0.00561 µM (active),0.00358 µM (active),0.0526 µM (active),0.285 µM (active),0.00418 µM (active),0.0123 µM (active),0.0108 µM (active),0.0291 µM (active),0.00507 µM (active),0.0111 µM (active),0.0131 µM (active),0.0115 µM (active),0.00581 µM (active),0.000668 µM (active),0.00736 µM (active),0.00661 µM (active),0.00507 µM (active)
CCOCC(NC(=O)C(CC(C)C)NC(=O)OC(C)(C)C)C(N)=O (stereo not drawn) (Boc-Leu-Ser(Et)-NH2; configuration not given here),> 100 µM (inactive),> 100 µM (inactive),> 100 µM (inactive),> 100 µM (inactive),> 100 µM (inactive),> 100 µM (inactive),> 100 µM (inactive),> 100 µM (inactive),> 100 µM (inactive),> 100 µM (inactive),> 100 µM (inactive),1.59 µM (inactive),–,> 100 µM (inactive),> 100 µM (inactive),> 100 µM (inactive),> 100 µM (inactive),> 100 µM (inactive),> 100 µM (inactive)
C=C(C)C12OC3(c4ccccc4)OC1C1C4OC4(CO)C(O)C4(O)C(=O)C(C)=CC4C1(O3)C(C)C2OC(=O)/C=C/C=C/c1ccccc1 (configuration not stated),< 0.0005 µM (active),1.15 µM (inactive),0.337 µM (active),0.203 µM (active),< 0.0005 µM (active),0.504 µM (active),0.0716 µM (active),0.312 µM (active),0.253 µM (active),0.0802 µM (active),0.474 µM (active),–,< 0.0005 µM (active),0.109 µM (active),< 0.0005 µM (active),< 0.0005 µM (active),0.372 µM (active),0.228 µM (active),< 0.0005 µM (active)
CCOC(=O)/C(C#N)=N\Nc1ccc(-n2c(C)nc3ccccc3c2=O)cc1,78.3 µM (inactive),> 100 µM (inactive),> 100 µM (inactive),73.6 µM (inactive),> 100 µM (inactive),> 100 µM (inactive),16.5 µM (inactive),> 100 µM (inactive),70.3 µM (inactive),> 100 µM (inactive),–,75.9 µM (inactive),67.5 µM (inactive),32.7 µM (inactive),> 100 µM (inactive),47.6 µM (inactive),> 100 µM (inactive),59.6 µM (inactive),26.5 µM (inactive)
COP1(=S)OCC2CCC[C@@H]2O1 (some centres not stated),> 100 µM (inactive),–,> 100 µM (inactive),> 100 µM (inactive),> 100 µM (inactive),> 100 µM (inactive),> 100 µM (inactive),> 100 µM (inactive),> 100 µM (inactive),> 100 µM (inactive),> 100 µM (inactive),> 100 µM (inactive),> 100 µM (inactive),> 100 µM (inactive),> 100 µM (inactive),> 100 µM (inactive),> 100 µM (inactive),> 100 µM (inactive),> 100 µM (inactive)
COc1ccc(/C=C2\CCS(=O)(=O)c3ccccc3C2=O)cc1OC,48.8 µM (inactive),51.3 µM (inactive),35.4 µM (inactive),16.6 µM (inactive),33.4 µM (inactive),58.6 µM (inactive),–,28.8 µM (inactive),16.7 µM (inactive),68.1 µM (inactive),–,38 µM (inactive),18.3 µM (inactive),22.7 µM (inactive),19.6 µM (inactive),30.7 µM (inactive),25.6 µM (inactive),28.1 µM (inactive),17.4 µM (inactive)
Nc1ccc(COC(O)CN2CCCCC2)cc1[N+](=O)[O-] (configuration not stated),> 100 µM (inactive),–,> 100 µM (inactive),> 100 µM (inactive),> 100 µM (inactive),> 100 µM (inactive),> 100 µM (inactive),> 100 µM (inactive),> 100 µM (inactive),> 100 µM (inactive),> 100 µM (inactive),> 100 µM (inactive),> 100 µM (inactive),> 100 µM (inactive),> 100 µM (inactive),> 100 µM (inactive),> 100 µM (inactive),> 100 µM (inactive),> 100 µM (inactive)
C=CCn1cnc2c(O)nc(Nc3ccccc3)nc21,> 100 µM (inactive),> 100 µM (inactive),> 100 µM (inactive),> 100 µM (inactive),> 100 µM (inactive),> 100 µM (inactive),> 100 µM (inactive),–,> 100 µM (inactive),> 100 µM (inactive),> 100 µM (inactive),> 100 µM (inactive),> 100 µM (inactive),> 100 µM (inactive),> 100 µM (inactive),> 100 µM (inactive),> 100 µM (inactive),> 100 µM (inactive),> 100 µM (inactive)
